Results on eleven compounds are retold here after ChEMBL document CHEMBL1130335, “Comparative molecular field analysis of a series of paclitaxel analogues” (J Med Chem, 1997).

This test can be described thus: Measured activity expressed as ID50 (analogue)/ID50 (paclitaxel), where ID50 is the concentration of compound leading to 50% inhibition of the rate microtubule disassembly. Type of test: functional.
In the case of `CC(=O)O[C@H]1C(=O)[C@]2(C)[C@@H](O)CC3OC[C@@]3(OC(C)=O)[C@H]2[C@H](OC(=O)c2ccccc2)[C@]2(O)C[C@H](OC(=O)[C@@H](O)[C@@H](NC(=O)c3ccccc3)c3ccccc3)C(C)=C1C2(C)C` (stereo partly specified), the Activity was determined as 4.5. The value for `COC[C@H](NC(=O)c1ccccc1)[C@@H](O)C(=O)O[C@H]1C[C@@]2(O)[C@@H](OC(=O)c3ccccc3)[C@H]3[C@@](C)([C@@H](O)CC4OC[C@]43OC(C)=O)[C@@H](O)[C@H](OC(C)=O)C(=C1C)C2(C)C` (stereo partly specified) was 3.14. As for `CO[C@H]1[C@H](OC(C)=O)C2=C(C)[C@@H](OC(=O)[C@H](O)[C@@H](NC(=O)OC(C)(C)C)c3ccccc3)C[C@@](O)([C@@H](OC(=O)c3ccccc3)[C@H]3[C@@]1(C)[C@@H](O)CC1OC[C@]13OC(C)=O)C2(C)C` (stereo partly specified), the figure is 0.51; as for `CO[C@H]1CC2OC[C@@]2(OC(C)=O)[C@H]2[C@H](OC(=O)c3ccccc3)[C@]3(O)C[C@H](OC(=O)[C@H](O)[C@@H](NC(=O)c4ccccc4)c4ccccc4)C(C)=C([C@@H](OC(C)=O)[C@H](O)[C@]12C)C3(C)C` (stereo partly specified), 0.92. The value for `CC(=O)O[C@H]1C(=O)[C@]2(C)[C@@H](O)CC3OC[C@@]3(OC(C)=O)[C@H]2[C@H](OC(=O)c2ccccc2)[C@]2(O)C[C@H](OC(=O)[C@H](O)[C@H](NC(=O)c3ccc(Cl)cc3)c3ccccc3)C(C)=C1C2(C)C` (stereo partly specified) was 2.4; that for `CC(=O)O[C@@]12COC1C[C@H](O)[C@@]1(C)C(=O)[C@H](O)C3=C(C)[C@@H](OC(=O)[C@H](O)[C@@H](CC(C)(C)C)NC(=O)OC(C)(C)C)C[C@@](O)([C@@H](OC(=O)c4ccccc4)[C@@H]12)C3(C)C` (stereo partly specified) was 1.45; that for `CC(=O)O[C@@]12COC1C[C@H](O)[C@@]1(C)C(=O)[C@H](O)C3=C(C)[C@@H](OC(=O)C(O)C(O)c4ccccc4)C[C@@](O)([C@@H](OC(=O)c4ccccc4)[C@@H]12)C3(C)C` (stereo partly specified) was 3. `CC(=O)O[C@@]12COC1C[C@H](O)[C@@]1(C)C(=O)[C@H](O)C3=C(C)[C@@H](OC(=O)[C@@H](O)[C@H](N)c4ccccc4)C[C@@](O)([C@@H](OC(=O)c4ccccc4)[C@@H]12)C3(C)C` (stereo partly specified) returned an Activity of 30.

As to `COC(=O)[C@@H](C(=O)O[C@H]1C[C@@]2(O)[C@@H](OC(=O)c3ccccc3)[C@H]3[C@](C)(C(=O)[C@H](O)C(=C1C)C2(C)C)[C@@H](O)CC1OC[C@]13OC(C)=O)[C@H](NC(=O)OC(C)(C)C)c1ccccc1` (stereo partly specified), the Activity came out at 10. The value for `C/C=C/C(=O)O[C@H]1C[C@@]2(O)[C@@H](OC(=O)c3ccccc3)[C@H]3[C@](C)(C(=O)[C@H](OC(C)=O)C(=C1C)C2(C)C)[C@@H](O)CC1OC[C@]13OC(C)=O` (stereo partly specified) was 100; that for `COc1ccc([C@@H](NC(=O)c2ccccc2)[C@@H](O)C(=O)O[C@H]2C[C@@]3(O)[C@@H](OC(=O)c4ccccc4)[C@H]4[C@](C)(C(=O)[C@H](OC(C)=O)C(=C2C)C3(C)C)[C@@H](O)CC2OC[C@]24OC(C)=O)cc1` (stereo partly specified) was 0.5.
